One test has as its target SMARCA4 (Homo sapiens, UniProt P51532). The test is described as follows: HiBit assay in engineered HT1080 CRISPR knock-in cell, 6 hrs (B series), SMARCA4. The conditions noted are these: 6 hrs incubation; for DC50: HT1080 CRISPR knock-in cells, read-out: SMARC A4 HT1080 HiBit DC50; for Dmax: HT-1080, HT1080 CRISPR knock-in cells, read-out: SMARC A4 HT1080 HiBit Dmax(%). In kind it is cell-based. Here is the method: (§1) The HiBit assay was performed using engineered HT1080 CRISPR knock-in cell utilizing the Nano-Glo HiBiT Lytic Detection System from Promega, Cat #N3040. Compounds were transferred, 25 nL DMSO or test compounds (final DMSO @ 0.1%) to intermediate plates (Corning3570) using ECHO550. Cells were seeded onto compounds at 2000 cells/25 μL/well and incubated for 6 hrs in a tissue culture incubator at 37° C. and 5% CO2. The LgBiT Protein was diluted at 1:100 and the Nano-Glo® HiBIT Lytic Substrate 1:50 into an appropriate volume of room temperature using the Nano-Glo® HiBiT Lytic Buffer. At the end of compound incubation time, 15 ul of the detection reagent was added to each well (without LgBiT for negative control wells) using the Thermo Scientific multidrop combi. The plate was shaken for 10 mins at RT using Combi. After briefly centrifugation (2000 rpm 1 mins), plate was read on Envision (Ultrasensitive luminescence model).

Another test concerns the target SMARCA2 (Homo sapiens, UniProt P51531). As to the kind of experiment: HiBit assay in engineered HT1080 CRISPR knock-in cell, 6 hrs (B series), SMARCA2. Particulars: 6 hrs incubation; for DC50: HT1080 CRISPR knock-in cells, read-out: SMARC A2 HT1080 HiBit DC50; for Dmax: HT-1080, HT1080 CRISPR knock-in cells, read-out: SMARC A2 HT1080 HiBit Dmax (%). The format is cell-based. Here is the method:
as §1

In US20260092071A1, “COMPOUNDS AND COMPOSITIONS AS SMARCA2/4 DEGRADERS AND USES THEREOF” (REGENTS OF THE UNIVERSITY OF MICHIGAN, priority 2022, published 2026) one finds DC50 and Dmax data, which are given here for eleven compounds.

Each structure is given as a SMILES string. Bounds are passed on as bounds.

SMARCA2, sequence (P51531 whole entry): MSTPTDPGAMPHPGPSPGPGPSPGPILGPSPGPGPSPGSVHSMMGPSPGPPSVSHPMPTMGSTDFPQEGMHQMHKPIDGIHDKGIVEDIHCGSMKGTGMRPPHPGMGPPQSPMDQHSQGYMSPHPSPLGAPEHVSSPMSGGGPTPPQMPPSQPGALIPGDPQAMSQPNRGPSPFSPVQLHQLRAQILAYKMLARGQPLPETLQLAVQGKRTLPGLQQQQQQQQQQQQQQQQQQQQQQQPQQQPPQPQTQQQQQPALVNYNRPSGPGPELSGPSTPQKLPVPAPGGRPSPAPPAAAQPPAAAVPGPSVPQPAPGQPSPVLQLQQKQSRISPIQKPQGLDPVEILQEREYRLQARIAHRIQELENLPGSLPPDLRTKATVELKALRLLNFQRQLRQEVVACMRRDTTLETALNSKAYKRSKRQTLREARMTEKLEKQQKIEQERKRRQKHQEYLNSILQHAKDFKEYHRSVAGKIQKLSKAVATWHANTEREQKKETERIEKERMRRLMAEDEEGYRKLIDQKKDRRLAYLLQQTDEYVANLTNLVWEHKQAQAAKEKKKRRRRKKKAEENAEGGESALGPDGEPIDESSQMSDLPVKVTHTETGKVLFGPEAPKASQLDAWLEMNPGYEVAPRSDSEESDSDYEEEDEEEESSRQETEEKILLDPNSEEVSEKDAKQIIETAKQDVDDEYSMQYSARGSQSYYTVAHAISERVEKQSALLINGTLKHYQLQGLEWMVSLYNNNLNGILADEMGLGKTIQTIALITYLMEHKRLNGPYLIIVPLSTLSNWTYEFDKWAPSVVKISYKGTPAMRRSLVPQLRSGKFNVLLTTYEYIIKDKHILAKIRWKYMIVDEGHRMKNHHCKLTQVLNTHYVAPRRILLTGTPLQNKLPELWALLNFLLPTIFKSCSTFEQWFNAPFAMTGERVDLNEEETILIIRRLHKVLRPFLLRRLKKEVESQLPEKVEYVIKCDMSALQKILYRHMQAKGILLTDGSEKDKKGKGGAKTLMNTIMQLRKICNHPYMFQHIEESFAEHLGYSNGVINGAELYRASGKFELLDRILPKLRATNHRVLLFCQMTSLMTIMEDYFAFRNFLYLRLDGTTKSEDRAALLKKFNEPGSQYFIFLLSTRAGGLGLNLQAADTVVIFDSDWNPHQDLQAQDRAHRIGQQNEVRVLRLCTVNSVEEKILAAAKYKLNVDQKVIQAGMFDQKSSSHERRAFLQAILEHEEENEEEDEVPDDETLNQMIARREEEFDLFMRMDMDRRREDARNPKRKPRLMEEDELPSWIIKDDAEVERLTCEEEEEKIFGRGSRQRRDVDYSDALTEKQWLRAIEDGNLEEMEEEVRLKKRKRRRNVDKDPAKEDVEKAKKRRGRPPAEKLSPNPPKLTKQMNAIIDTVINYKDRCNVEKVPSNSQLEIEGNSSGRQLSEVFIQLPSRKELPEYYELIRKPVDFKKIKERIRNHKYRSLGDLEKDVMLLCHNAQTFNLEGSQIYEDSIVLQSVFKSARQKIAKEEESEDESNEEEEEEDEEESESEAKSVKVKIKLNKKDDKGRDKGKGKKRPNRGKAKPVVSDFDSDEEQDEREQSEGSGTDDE
SMARCA4, sequence (P51532 whole entry): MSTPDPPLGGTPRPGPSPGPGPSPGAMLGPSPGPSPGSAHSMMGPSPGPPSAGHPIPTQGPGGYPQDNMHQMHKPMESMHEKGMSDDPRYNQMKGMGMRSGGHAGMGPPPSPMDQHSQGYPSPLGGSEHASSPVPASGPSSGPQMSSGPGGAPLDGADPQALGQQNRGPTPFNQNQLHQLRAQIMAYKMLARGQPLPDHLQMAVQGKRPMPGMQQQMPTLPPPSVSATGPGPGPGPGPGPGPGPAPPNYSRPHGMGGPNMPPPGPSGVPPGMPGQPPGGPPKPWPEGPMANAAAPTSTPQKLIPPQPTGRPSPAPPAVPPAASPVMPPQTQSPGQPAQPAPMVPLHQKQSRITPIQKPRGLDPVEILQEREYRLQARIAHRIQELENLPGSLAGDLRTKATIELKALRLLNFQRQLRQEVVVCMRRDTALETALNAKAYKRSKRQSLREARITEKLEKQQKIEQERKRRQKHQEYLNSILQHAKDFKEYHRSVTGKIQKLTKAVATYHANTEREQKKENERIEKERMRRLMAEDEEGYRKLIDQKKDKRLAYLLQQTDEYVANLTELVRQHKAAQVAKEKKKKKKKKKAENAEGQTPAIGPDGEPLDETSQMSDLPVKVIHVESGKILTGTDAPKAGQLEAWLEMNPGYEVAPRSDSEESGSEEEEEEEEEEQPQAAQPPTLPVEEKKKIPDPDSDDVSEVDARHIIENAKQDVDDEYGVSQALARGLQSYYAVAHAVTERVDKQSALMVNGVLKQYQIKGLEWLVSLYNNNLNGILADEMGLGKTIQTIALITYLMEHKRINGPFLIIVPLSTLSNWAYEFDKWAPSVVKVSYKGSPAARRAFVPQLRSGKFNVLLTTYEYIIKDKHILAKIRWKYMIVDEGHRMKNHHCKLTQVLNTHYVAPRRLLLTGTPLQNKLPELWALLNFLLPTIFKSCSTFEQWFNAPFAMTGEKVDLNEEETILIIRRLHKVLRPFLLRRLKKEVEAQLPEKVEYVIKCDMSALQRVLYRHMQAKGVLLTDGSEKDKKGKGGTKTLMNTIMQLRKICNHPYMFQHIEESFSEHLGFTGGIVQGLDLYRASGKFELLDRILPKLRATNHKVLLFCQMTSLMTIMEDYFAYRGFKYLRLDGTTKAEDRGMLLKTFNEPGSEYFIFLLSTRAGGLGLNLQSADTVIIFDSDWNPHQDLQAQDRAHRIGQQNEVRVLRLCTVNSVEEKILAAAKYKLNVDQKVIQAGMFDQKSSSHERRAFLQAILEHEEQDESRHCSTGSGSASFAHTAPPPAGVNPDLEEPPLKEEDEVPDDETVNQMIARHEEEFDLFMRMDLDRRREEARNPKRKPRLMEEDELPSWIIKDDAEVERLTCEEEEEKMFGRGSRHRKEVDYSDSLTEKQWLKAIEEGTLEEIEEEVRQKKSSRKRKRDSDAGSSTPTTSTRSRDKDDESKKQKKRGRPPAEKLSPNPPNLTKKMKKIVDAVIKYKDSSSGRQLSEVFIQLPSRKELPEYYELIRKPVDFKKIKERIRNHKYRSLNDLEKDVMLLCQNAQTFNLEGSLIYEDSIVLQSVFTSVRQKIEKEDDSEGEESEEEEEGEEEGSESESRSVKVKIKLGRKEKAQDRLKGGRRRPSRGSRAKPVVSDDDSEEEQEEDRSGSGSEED

With `Cc1ncsc1-c1ccc([C@H](C)NC(=O)[C@@H]2C[C@@H](O)CN2C(=O)[C@H](C(C)C)n2cc(C3CCC(CN4CCC(c5ccc6c(c5)C(C)(C)c5nc(=O)c7c(Cl)cccc7n5-6)CC4)CC3)nn2)cc1` (stereo partly drawn) [Compound B19, (2S,4R)-1-((S)-2-(4-(4-((4-(4-chloro-7,7-dimethyl-5-oxo-5,7-dihydroindolo[1,2-a]quinazolin-9-yl)piperidin-1-yl)methyl)cyclohexyl)-1H-1,2,3-triazol-1-yl)-3-methylbutanoyl)-4-hydroxy-N-((S)-1-(4-(4-methylthiazol-5-yl)phenyl)ethyl)pyrrolidine-2-carboxamide], the values for the DC50 at SMARCA4 and at SMARCA2 were 100 to 500 nM and < 100 nM, respectively. Further, the Dmax at SMARCA4 was 70 to 90%; on SMARCA2, > 90%.
For `Cc1ncsc1-c1ccc([C@H](C)NC(=O)[C@@H]2C[C@@H](O)CN2C(=O)[C@@H](NC(=O)c2ccc(CN3CCC(c4ccc5c(c4)C(C)(C)c4nc(=O)c6c(Cl)cccc6n4-5)CC3)s2)C(C)(C)C)cc1` [Compound B20, (2S,4R)-1-((S)-2-(5-((4-(4-chloro-7,7-dimethyl-5-oxo-5,7-dihydroindolo[1,2-a]quinazolin-9-yl)piperidin-1-yl)methyl)thiophene-2-carboxamido)-3,3-dimethylbutanoyl)-4-hydroxy-N-((S)-1-(4-(4-methylthiazol-5-yl)phenyl)ethyl)pyrrolidine-2-carboxamide], the DC50 on SMARCA4 and at SMARCA2 was < 100 nM throughout. The Dmax is 70 to 90% at SMARCA4 and > 90% on SMARCA2.
Take `Cc1ncsc1-c1ccc([C@H](CCCCCN2CCC(c3ccc4c(c3)-n3c(nc(=O)c5c(Cl)cccc53)C4(C)C)CC2)NC(=O)[C@@H]2C[C@@H](O)CN2C(=O)[C@@H](NC(=O)C2(F)CC2)C(C)(C)C)cc1` [Compound B21, (2S,4R)-N-((S)-6-(4-(4-chloro-7,7-dimethyl-5-oxo-5,7-dihydroindolo[1,2-a]quinazolin-10-yl)piperidin-1-yl)-1-(4-(4-methylthiazol-5-yl)phenyl)hexyl)-1-((S)-2-(1-fluorocyclopropane-1-carboxamido)-3,3-dimethylbutanoyl)-4-hydroxypyrrolidine-2-carboxamide]: the DC50 on SMARCA4 and on SMARCA2 was < 100 nM each time. Also, the Dmax at SMARCA4 and at SMARCA2 was > 90% throughout.
For the compound `Cc1ncsc1-c1ccc([C@H](CC(=O)N[C@H]2CC[C@H](CN3CCC(c4ccc5c(c4)-n4c(nc(=O)c6c(Cl)cccc64)C5(C)C)CC3)CC2)NC(=O)[C@@H]2C[C@@H](O)CN2C(=O)[C@@H](NC(=O)C2(F)CC2)C(C)(C)C)cc1` [Compound B22, (2S,4R)-N-((S)-3-(((1r,4S)-4-((4-(4-chloro-7,7-dimethyl-5-oxo-5,7-dihydroindolo[1,2-a]quinazolin-10-yl)piperidin-1-yl)methyl)cyclohexyl)amino)-1-(4-(4-methylthiazol-5-yl)phenyl)-3-oxopropyl)-1-((S)-2-(1-fluorocyclopropane-1-carboxamido)-3,3-dimethylbutanoyl)-4-hydroxypyrrolidine-2-carboxamide], the DC50 is 100 to 500 nM at SMARCA4 and < 100 nM on SMARCA2. Further, the Dmax on SMARCA4 was 50 to 69%; at SMARCA2, > 90%.
For the compound `Cc1ncsc1-c1ccc([C@H](C)NC(=O)[C@@H]2C[C@@H](O)CN2C(=O)[C@@H](NC(=O)C23CC(CN4CCC(c5ccc6c(c5)C(C)(C)c5nc(=O)c7c(Cl)cccc7n5-6)CC4)(C2)C3)C(C)(C)C)cc1` [Compound B23, (2S,4R)-1-((S)-2-(3-((4-(4-chloro-7,7-dimethyl-5-oxo-5,7-dihydroindolo[1,2-a]quinazolin-9-yl)piperidin-1-yl)methyl)bicyclo[1.1.1]pentane-1-carboxamido)-3,3-dimethylbutanoyl)-4-hydroxy-N-((S)-1-(4-(4-methylthiazol-5-yl)phenyl)ethyl)pyrrolidine-2-carboxamide], at SMARCA4, the DC50 was < 100 nM and the Dmax fell in the range of 70 to 90%. Besides, on SMARCA2, the DC50 was < 100 nM and the Dmax is > 90%.
For the compound `Cc1ncsc1-c1ccc([C@H](C)NC(=O)[C@@H]2C[C@@H](O)CN2C(=O)[C@H](C(C)C)n2cc(CCCN3CCC(c4ccc5c(c4)C(C)(C)c4nc(=O)c6c(Cl)cccc6n4-5)CC3)nn2)cc1` [Compound B24, (2S,4R)-1-((S)-2-(4-(3-(4-(4-chloro-7,7-dimethyl-5-oxo-5,7-dihydroindolo[1,2-a]quinazolin-9-yl)piperidin-1-yl)propyl)-1H-1,2,3-triazol-1-yl)-3-methylbutanoyl)-4-hydroxy-N—((S)-1-(4-(4-methylthiazol-5-yl)phenyl)ethyl)pyrrolidine-2-carboxamide], at SMARCA4, the DC50 is < 100 nM and the Dmax was > 90%. On SMARCA2, the DC50 was < 100 nM and the Dmax is > 90%.
Regarding `Cc1ncsc1-c1ccc([C@H](CC(=O)NCCCN2CCC(c3ccc4c(c3)-n3c(nc(=O)c5c(Cl)cccc53)C4(C)C)CC2)NC(=O)[C@@H]2C[C@@H](O)CN2C(=O)[C@@H](NC(=O)C2(F)CC2)C(C)(C)C)cc1` [Compound B25, (2S,4R)-N-((S)-3-((3-(4-(4-chloro-7,7-dimethyl-5-oxo-5,7-dihydroindolo[1,2-a]quinazolin-10-yl)piperidin-1-yl)propyl)amino)-1-(4-(4-methylthiazol-5-yl)phenyl)-3-oxopropyl)-1-((S)-2-(1-fluorocyclopropane-1-carboxamido)-3,3-dimethylbutanoyl)-4-hydroxypyrrolidine-2-carboxamide], on SMARCA4, the DC50 lay in the range of 100 to 500 nM and the Dmax is < 50%. In addition, on SMARCA2, the DC50 lay in the range of 501 to 1000 nM and the Dmax was < 50%.
For `Cc1ncsc1-c1ccc([C@H](C)NC(=O)[C@@H]2C[C@@H](O)CN2C(=O)[C@@H](c2cc(OCCCN3CCC(c4ccc5c(c4)-n4c(nc(=O)c6c(Cl)cccc64)C5(C)C)CC3)no2)C(C)C)cc1` [Compound B26, (2S,4R)-1-((R)-2-(3-(3-(4-(4-chloro-7,7-dimethyl-5-oxo-5,7-dihydroindolo[1,2-a]quinazolin-10-yl)piperidin-1-yl)propoxy)isoxazol-5-yl)-3-methylbutanoyl)-4-hydroxy-N-((S)-1-(4-(4-methylthiazol-5-yl)phenyl)ethyl)pyrrolidine-2-carboxamide], at SMARCA4, the DC50 is < 100 nM and the Dmax was > 90%. On SMARCA2, the DC50 was < 100 nM and the Dmax was > 90%.
For `Cc1ncsc1-c1ccc([C@H](C)NC(=O)[C@@H]2C[C@@H](O)CN2C(=O)[C@@H](c2cc(OCCCCN3CCC(c4ccc5c(c4)-n4c(nc(=O)c6c(Cl)cccc64)C5(C)C)CC3)no2)C(C)C)cc1` [Compound B27, (2S,4R)-1-((R)-2-(3-(4-(4-(4-chloro-7,7-dimethyl-5-oxo-5,7-dihydroindolo[1,2-a]quinazolin-10-yl)piperidin-1-yl)butoxy)isoxazol-5-yl)-3-methylbutanoyl)-4-hydroxy-N-((S)-1-(4-(4-methylthiazol-5-yl)phenyl)ethyl)pyrrolidine-2-carboxamide], the DC50 at SMARCA4 and on SMARCA2 was < 100 nM each time. Besides, the Dmax at SMARCA4 was 70 to 90%; on SMARCA2 it was > 90%.
With `Cc1ncsc1-c1ccc([C@H](C)NC(=O)[C@@H]2C[C@@H](O)CN2C(=O)[C@H](C(C)C)n2cc(CN3CCC(c4ccc5c(c4)C(C)(C)c4nc(=O)c6c(Cl)cccc6n4-5)CC3)nn2)cc1` [Compound B29, (2S,4R)-1-((S)-2-(4-((4-(4-chloro-7,7-dimethyl-5-oxo-5,7-dihydroindolo[1,2-a]quinazolin-9-yl)piperidin-1-yl)methyl)-1H-1,2,3-triazol-1-yl)-3-methylbutanoyl)-4-hydroxy-N—((S)-1-(4-(4-methylthiazol-5-yl)phenyl)ethyl)pyrrolidine-2-carboxamide], on SMARCA4, the DC50 is < 100 nM and the Dmax was > 90%. Besides, at SMARCA2, the DC50 is < 100 nM and the Dmax is > 90%.
Take `Cc1ncsc1-c1ccc([C@H](C)NC(=O)[C@@H]2C[C@@H](O)CN2C(=O)[C@@H](c2cc(OC3CCC(CN4CCC(c5ccc6c(c5)C(C)(C)c5nc(=O)c7c(Cl)cccc7n5-6)CC4)CC3)no2)C(C)C)cc1` (stereo partly drawn) [Compound B30, (2S,4R)-1-((R)-2-(3-((4-((4-(4-chloro-7,7-dimethyl-5-oxo-5,7-dihydroindolo[1,2-a]quinazolin-9-yl)piperidin-1-yl)methyl)cyclohexyl)oxy)isoxazol-5-yl)-3-methylbutanoyl)-4-hydroxy-N-((S)-1-(4-(4-methylthiazol-5-yl)phenyl)ethyl)pyrrolidine-2-carboxamide]: the DC50 at SMARCA4 and on SMARCA2 was < 100 nM each time. The Dmax on SMARCA4 and on SMARCA2 was > 90% in each case.
